Legend:
[1] = Average plasma concentration at steady state in mouse at 62 mg/kg administered bid; format: ADME, organism-based; conditions: in vivo
[2] = Cmax in mouse at 250 mg/kg administered bid; format: ADME, organism-based; set-up: dose 250 mg/kg; conditions: in vivo
[3] = Cmax in human at 2400 mg administered bid; format: ADME; set-up: dose 2400 mg; conditions: in vivo
[4] = Tmax in female cynomolgus monkey at 225 mg/kg, po measured on day 1; format: ADME, organism-based, Macaca fascicularis; conditions: in vivo
[5] = Clearance in female cynomolgus monkey at 75 mg/kg, po measured on day 1; format: ADME, organism-based, Macaca fascicularis; conditions: in vivo
[6] = Half life in male cynomolgus monkey at 75 mg/kg, po measured on day 1; format: ADME, organism-based, Macaca fascicularis; conditions: in vivo
[7] = Drug metabolism in Beagle dog hepatocytes assessed as unmetabolized compound at 10 uM incubated for 120 mins by UPLC-QTOF-PDA analysis; format: ADME, cell-based, Canis lupus familiaris, Hepatocyte; conditions: read-out: Drug metabolism
Cytochrome P450 2C8 = biological target: T1, Cytochrome P450 2C8 (Homo sapiens, UniProt P10632); experiment: Inhibition of CYP2C8 in human hepatocytes; format: ADME, cell-based, Hepatocyte
T1 sequence (P10632 whole entry): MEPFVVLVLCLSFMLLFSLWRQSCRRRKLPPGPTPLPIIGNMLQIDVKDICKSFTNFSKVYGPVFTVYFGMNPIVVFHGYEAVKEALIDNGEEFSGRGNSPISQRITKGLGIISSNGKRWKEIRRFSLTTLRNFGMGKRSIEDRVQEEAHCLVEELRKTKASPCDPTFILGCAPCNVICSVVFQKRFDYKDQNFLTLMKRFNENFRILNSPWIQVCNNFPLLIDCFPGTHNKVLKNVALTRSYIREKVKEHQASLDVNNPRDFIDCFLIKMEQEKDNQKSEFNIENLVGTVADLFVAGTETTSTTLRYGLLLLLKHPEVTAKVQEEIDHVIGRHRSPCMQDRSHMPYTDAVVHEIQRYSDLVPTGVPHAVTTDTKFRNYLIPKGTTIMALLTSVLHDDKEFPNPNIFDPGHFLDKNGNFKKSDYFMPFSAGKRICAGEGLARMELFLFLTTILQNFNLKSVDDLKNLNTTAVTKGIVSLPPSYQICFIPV

[8] = Half life in male cynomolgus monkey at 75 mg/kg, po BID measured on day 8; format: ADME, organism-based, Macaca fascicularis; conditions: in vivo
[9] = Drug metabolism in cynomolgus monkey assessed as indoximod formation of by measuring indoximod Tmax at 75 to 675 mg/kg, po administered as single dose; format: ADME, organism-based, Macaca fascicularis; conditions: in vivo, dose 75-675 mg/kg
[10] = Drug metabolism in mouse assessed as formation of M9 metabolite at 20 to 900 mg/kg; format: ADME, organism-based; conditions: in vivo, dose 20-900 mg/kg

| Structure (SMILES) | Cave [1] | Cmax [2] | Cmax [3] | Tmax [4] | CL/F [5] | half-life [6] | remaining at 2 h, 10 µM [7] | IC50 (Cytochrome P450 2C8) | half-life [8] | Tmax [9] | Drug metabolism [10] |
| --- | --- | --- | --- | --- | --- | --- | --- | --- | --- | --- | --- |
| Cn1cc(C[C@@H](N)C(=O)O)c2ccccc21 [INDOXIMOD] | > 7 µM | 50 µM | 22 µM | 1 h | 25.6 mL/min/kg | 2.7 h |  |  |  |  |  |
| CCOC(=O)[C@@H](Cc1cn(C)c2ccccc12)NC(=O)[C@@H](N)CC(C)C.Cl |  |  |  |  |  |  | 1.1% | > 50 µM | 1.8 h | 1 h | Metabolite_Detected |

Reference: ChEMBL document CHEMBL4837181 (Eur J Med Chem, 2020)
